The text below walks through data of BindingDB's records for doi:10.1021/acsmedchemlett.3c00041 (Insilico Medicine Hong Kong, 2023).

Chain of Tyrosine-protein kinase JAK1 (P23458 whole entry): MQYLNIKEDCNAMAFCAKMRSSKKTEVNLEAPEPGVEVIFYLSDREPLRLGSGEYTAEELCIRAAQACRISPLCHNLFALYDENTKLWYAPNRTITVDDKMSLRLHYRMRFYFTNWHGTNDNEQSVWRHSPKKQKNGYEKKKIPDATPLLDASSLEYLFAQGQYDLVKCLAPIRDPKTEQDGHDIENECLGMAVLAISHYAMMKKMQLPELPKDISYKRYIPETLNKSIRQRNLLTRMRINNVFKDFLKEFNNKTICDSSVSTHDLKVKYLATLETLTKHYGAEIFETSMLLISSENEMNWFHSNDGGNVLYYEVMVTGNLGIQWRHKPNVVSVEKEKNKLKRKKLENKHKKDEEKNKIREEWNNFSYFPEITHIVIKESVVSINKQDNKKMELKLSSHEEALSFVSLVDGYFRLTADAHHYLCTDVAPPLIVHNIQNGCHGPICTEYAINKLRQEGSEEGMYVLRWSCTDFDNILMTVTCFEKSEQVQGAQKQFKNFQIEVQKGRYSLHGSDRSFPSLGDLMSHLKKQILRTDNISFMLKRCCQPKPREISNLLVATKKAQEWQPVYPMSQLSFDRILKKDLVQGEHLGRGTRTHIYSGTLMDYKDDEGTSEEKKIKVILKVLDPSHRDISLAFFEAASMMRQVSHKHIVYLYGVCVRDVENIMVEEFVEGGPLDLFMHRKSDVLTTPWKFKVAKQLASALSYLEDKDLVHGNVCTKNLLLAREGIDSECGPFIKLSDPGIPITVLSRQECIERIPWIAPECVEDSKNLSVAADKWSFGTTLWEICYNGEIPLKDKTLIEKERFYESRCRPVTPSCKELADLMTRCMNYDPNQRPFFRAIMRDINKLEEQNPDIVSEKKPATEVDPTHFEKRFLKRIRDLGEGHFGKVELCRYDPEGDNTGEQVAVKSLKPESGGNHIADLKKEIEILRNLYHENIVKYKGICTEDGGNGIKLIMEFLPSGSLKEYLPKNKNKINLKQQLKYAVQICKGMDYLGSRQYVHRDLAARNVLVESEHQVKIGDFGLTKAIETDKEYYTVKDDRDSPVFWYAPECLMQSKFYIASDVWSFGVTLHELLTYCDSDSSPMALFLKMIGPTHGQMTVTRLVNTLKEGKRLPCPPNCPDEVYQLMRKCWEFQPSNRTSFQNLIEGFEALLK

This assay concerns the target Tyrosine-protein kinase JAK1 (Homo sapiens, UniProt P23458). The experiment in a line: Inhibition of JAK1 (unknown origin).
On to `CCC1CN(C(=O)NCC(F)(F)F)CC1NCc1ccc(C)nc1-c1cnc2[nH]ccc2c1` (stereo not drawn), for which the concentration for half-maximal inhibition (IC50) was determined as 500 nM.
For `CCC1CN(C(=O)NCC(F)(F)F)CC1N(C)c1ncnc2[nH]ccc12` (stereo not drawn) the value was 930 nM; for `CCC1CN(C(=O)NCC(F)(F)F)CC1c1nc(N)nc2[nH]ccc12` (stereo not drawn), 9600 nM.
